Experiment [1] has as its target T1, Farnesyl pyrophosphate synthase (Homo sapiens) (UniProt P14324).
T1 sequence (whole entry): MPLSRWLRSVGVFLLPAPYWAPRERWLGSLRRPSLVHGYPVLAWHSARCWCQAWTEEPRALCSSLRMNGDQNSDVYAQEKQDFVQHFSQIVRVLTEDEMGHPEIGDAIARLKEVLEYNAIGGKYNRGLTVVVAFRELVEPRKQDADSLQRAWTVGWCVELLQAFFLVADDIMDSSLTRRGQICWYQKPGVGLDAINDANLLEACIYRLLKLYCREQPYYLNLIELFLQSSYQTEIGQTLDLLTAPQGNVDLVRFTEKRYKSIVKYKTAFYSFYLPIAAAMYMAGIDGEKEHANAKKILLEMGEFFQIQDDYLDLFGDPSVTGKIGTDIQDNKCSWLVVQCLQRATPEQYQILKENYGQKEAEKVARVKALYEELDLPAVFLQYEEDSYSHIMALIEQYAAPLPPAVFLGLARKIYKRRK
Description: Binding affinity to FPPS (unknown origin) expressed in Escherichia coli BL21(DEscherichia ) at protein/ligand 1:10 to 1:100 molar ratio by saturation transfer difference NMR analysis.

In experiment [2] the target is T1, Farnesyl pyrophosphate synthase (Homo sapiens). Description: Binding affinity to FPPS (unknown origin) expressed in Escherichia coli BL21(DEscherichia ) at protein/ligand 1:10 to 1:100 molar ratio by WaterLOGSY NMR analysis.
Experiment [3] shares this target. As to the kind of experiment: Binding affinity to FPPS (unknown origin) expressed in Escherichia coli BL21(DEscherichia ) at protein/ligand 1:10 to 1:100 molar ratio by WaterLOGSY 1D 1H NMR analysis.
In experiment [4] the target is T2, Farnesyl pyrophosphate synthase (Homo sapiens, UniProt P14324).
T2 sequence (P14324 whole entry): T1 sequence (whole entry)
Description: Binding affinity to FPPS (unknown origin) expressed in Escherichia coli BL21(DEscherichia ) assessed as binding constant of proton H2/H8 of purine ring by saturation transfer difference NMR analysis.

Experiment [5] concerns the target T2, Farnesyl pyrophosphate synthase. As to the kind of experiment: Binding affinity to FPPS (unknown origin) expressed in Escherichia coli BL21(DEscherichia ) assessed as binding constant of proton H12 of isopentenylic moiety by saturation transfer difference NMR analysis.
Experiment [6] has the same target. As to the kind of experiment: Binding affinity to FPPS (unknown origin) expressed in Escherichia coli BL21(DEscherichia ) assessed as binding constant of proton H11 of isopentenylic moiety by saturation transfer difference NMR analysis.
For experiment [7] the target is unchanged. As to the kind of experiment: Binding affinity to FPPS (unknown origin) expressed in Escherichia coli BL21(DEscherichia ) assessed as binding constant of proton H14-H15 of isopentenylic moiety by saturation transfer difference NMR analysis.
For experiment [8], the target named is T1, Farnesyl pyrophosphate synthase (Homo sapiens). As to the kind of experiment: Binding affinity to FPPS (unknown origin) expressed in Escherichia coli BL21(DEscherichia ) at protein/ligand 1:10 to 1:100 molar ratio by 2D COSY NMR analysis.

Active and inactive are the calls of the source. No cut-off for these calls is given here.

For orientation: Kd means the free concentration of one partner at which half of the binding sites on the other are occupied at equilibrium, for simple one-to-one binding. As to `CC(C)=CCNc1ncnc2c1ncn2[C@@H]1O[C@H](CO)[C@@H](O)[C@H]1O` [RIBOPRINE], the outcome in experiment [1], in experiment [2], in experiment [3] and in experiment [8] was Active. Also, the Kd in experiment [4] worked out at 2020 µM; in experiment [5], 2210 µM; in experiment [6], 550 µM; in experiment [7], 1210 µM.

For the origin of these results see ChEMBL document CHEMBL3352333, “Structural evidence of N6-isopentenyladenosine as a new ligand of farnesyl pyrophosphate synthase” (J Med Chem, 2014).
